The values that follow come from patent US12522593B2, “Azacycloalkyl carbonyl cyclic amine compound” (Alivexis, Inc., priority 2022, dated 2026).

The target in experiment [1] is human recombinant CTSC (Homo sapiens (Human), UniProt P53634). The experiment can be described thus: CTSC inhibition assay (in vitro), fluorescent substrate GF-AFC. It is filed as biochemical. Conditions: 30 μmol/L GF-AFC, pH 5.0, 25° C. The method, then: 1. CTSC Inhibition Assay (In Vitro)
A test specimen was evaluated by a CTSC inhibition assay using a fluorescent substrate GF-AFC (Gly-Phe-7-Amino-4-trifluoromethylcoumarin, MP Biomedical, 03AFC03325). Since the GF-AFC is converted by CTSC to aminotrifluoromethylcoumarin having a specific fluorescence wavelength and the produced amount is proportional to CTSC activity, quantitative analysis was performed by measuring a fluorescence intensity with a plate reader. CTSC inhibition assay for each compound was performed using a polystyrene-made non-adhesive surface-treated black 384 well plate under the following conditions.
A human recombinant CTSC (R&D systems, 1071-CY) was dissolved in a CTSC active cocktail (20 ng/mL of human recombinant cathepsin L (R&D systems, 952-CY, 25 mmol/L MES/NaOH (pH: 6.0), 5 mmol/L dithiothreitol (DTT)) so as to be 100 ng/mL and incubated at 18° C. for 30 minutes. The solution was diluted with a CTSC assay buffer (50 mmol/L MES/NaOH (pH: 5.0), 50 mmol/L NaCl, 0.001% Triton X-100, mmol/L DTT) so as to be 2 ng/mL in a case of performing CTSC inhibition assay.
The test specimen was dissolved in dimethylsulfoxide (DMSO) at 10 mmol/L to prepare a stock solution. In a case where a solution in which the stock solution was diluted 15-fold with DMSO was used as the maximum evaluation concentration (0.667 mmol/L), 5-fold dilution was repeated in DMSO from the solution to prepare a serially diluted solution. 248.8 μL of the CTSC assay buffer was added to 1.12 μL of the serially diluted sample prepared in the DMSO to prepare a solution of a CTSC inhibition assay compound.
The final composition of the CTSC inhibition assay mixture was 0.66 ng/mL activated CTSC, 50 mmol/L MES/NaOH (pH: 5.0), 50 mmol/L NaCl, 0.001% Triton X-100, 5 mmol/L DTT, 30 μmol/L GF-AFC, and 0.15% DMSO, and the procedure was as follows. That is, 4 μL of the compound solution and 4 μL of the 2 ng/mL activated CTSC solution were mixed with each other in a 384 well plate and incubated at 25° C. for 30 minutes. Thereafter, 4 μL of the GF-AFC solution dissolved in the CTSC assay buffer was added to the mixture so as to be 90 μmol/L. After mixing to be uniform, a fluorescence emission intensity at 505 nm in a case of being excited at 390 nm after incubating at 25° C. for 1 hour was measured with a plate reader. A 4-parameter regression analysis was performed with GraphPad Prism (manufactured by GraphPad Software) from a plot of the fluorescence intensity at 505 nm and the sample concentration, and an IC50 value was calculated.
Results of test compounds of Formula (I) are shown in Table 1 as IC50 (nM) values for which 50% inhibition concentration is calculated based on CTSC inhibition (%). In the table, Ex indicates an example number.

The target of experiment [2] is CTSC in U937 cells (Homo sapiens (Human), UniProt P53634). The experiment can be described thus: Intracellular CTSC inhibition assay (in vitro), LLOMe-induced cell death in U937 cells. It is filed as cell-based. The conditions noted are these: 3 hours culture, CellTiter-Glo. How it is done: 2. Intracellular CTSC Inhibition Assay (In Vitro)
CTSC in U937 cells, sequence (P53634 25-463): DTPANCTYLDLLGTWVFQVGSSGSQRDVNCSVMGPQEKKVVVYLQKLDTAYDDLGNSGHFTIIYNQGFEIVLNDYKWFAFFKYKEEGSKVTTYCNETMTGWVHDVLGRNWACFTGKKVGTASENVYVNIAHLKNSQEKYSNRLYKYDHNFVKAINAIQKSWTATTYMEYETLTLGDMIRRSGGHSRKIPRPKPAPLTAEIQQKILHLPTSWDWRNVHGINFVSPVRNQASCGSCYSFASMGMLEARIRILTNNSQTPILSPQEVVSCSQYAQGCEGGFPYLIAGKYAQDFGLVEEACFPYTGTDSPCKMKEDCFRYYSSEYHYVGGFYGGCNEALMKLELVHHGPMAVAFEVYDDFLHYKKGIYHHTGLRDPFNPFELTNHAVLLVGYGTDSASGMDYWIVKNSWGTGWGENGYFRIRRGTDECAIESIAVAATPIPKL
A test specimen was evaluated by a degree of cell death in a case where a substrate LLOMe (L-Leucyl-L-Leucine methyl ester, hydrobromide salt, Sigma, 555045152) was added to U937 cells. The LLOMe is taken up into the cells by endocytosis and cleaved by CTSC. A product thereof induces lysosomal damage in cells and causes cell death in leukocytes and the like. Therefore, since the degree of cell death correlates with an amount of degradation of LLOMe, that is, with CTSC activity, by quantitatively analyzing the cell death, CTSC inhibitory activity of the test specimen in the cell was determined. CTSC inhibition assay was performed using a polystyrene-made white 384 well plate.
As the test specimen, a stock solution dissolved in DMSO was prepared so as to be 0.2 mmol/L, and in a case where a solution in which the stock solution was diluted 50-fold with a RPMI-1640 medium including 10% FBS was used as the maximum evaluation concentration (4000 nmol/L), a serially diluted solution was prepared by diluting the solution 3-fold with the medium. Thereafter, a 4-fold concentrated test specimen solution with the target final concentration was prepared.
U937 cells were cultured in a RPMI-1640 medium including 10% FBS, and diluted to prepare 90,000 cells/mL of cell suspension on the day of assay. 10 μL of the cell suspension was seeded per well. Next, 10 μL of the test specimen solution having a concentration 4 times the target final concentration was added thereto, and the mixture was allowed to stand for 30 minutes. Thereafter, 20 μL of a 300 μmol/L LLOMe solution dissolved in a RPMI-1640 medium including 10% FBS was added thereto, and the cells were cultured for 3 hours. After completion of the culture, 40 μL of CellTiter-Glo (registered trademark) reagent (Promega, G7570) was added to each well and mixed. After 15 minutes, 20 μL of the reaction solution in each well was transferred to a white 384 well plate, and a chemiluminescence intensity was measured with a plate reader. A 4-parameter regression analysis was performed with GraphPad Prism (manufactured by GraphPad Software) from a plot of the luminescence intensity and the sample concentration, and an IC50 value was calculated.
Results of test compounds of Formula (1) are shown in Table 2 as IC50 (nM) values for which 50% inhibition concentration is calculated based on CTSC inhibition (%). In the table, Ex indicates an example number.
Background: In ATP-based viability assays light output follows the ATP content of the culture.

Where a name gives a salt, the structure may show the parent alone.

human recombinant CTSC, sequence (P53634 25-134): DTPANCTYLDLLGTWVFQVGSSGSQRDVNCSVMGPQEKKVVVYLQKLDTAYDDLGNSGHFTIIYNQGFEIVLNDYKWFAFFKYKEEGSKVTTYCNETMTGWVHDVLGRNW
human recombinant CTSC, sequence (P53634 231-394): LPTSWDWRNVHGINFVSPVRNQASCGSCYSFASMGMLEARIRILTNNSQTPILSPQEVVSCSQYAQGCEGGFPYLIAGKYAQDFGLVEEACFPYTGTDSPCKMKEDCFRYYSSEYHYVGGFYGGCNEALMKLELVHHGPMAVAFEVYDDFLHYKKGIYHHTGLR
human recombinant CTSC, sequence (P53634 395-463): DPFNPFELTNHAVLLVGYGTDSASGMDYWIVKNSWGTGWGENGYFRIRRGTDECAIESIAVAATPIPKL

Consider `CC(C)C1(c2nc(C3CC(F)(F)C3)no2)CCN(C(=O)[C@@H]2C[C@@H](O)C3(CCC3)CN2)CC1` [Example 1, (4-(3-(3,3-Difluorocyclobutyl)-1,2,4-oxadiazol-5-yl)-4-isopropylpiperidin-1-yl)((7S,9R)-9-hydroxy-6-azaspiro[3.5]nonan-7-yl)methanone], for which the IC50 (usually the point on the concentration scale where inhibition reaches its midpoint) came to 1.63 nM in experiment [1] and 0.49 nM in experiment [2].
Turning to `O=C([C@@H]1C[C@@H](O)C2(CCC2)CN1)N1CCC(c2nc(C3CC(F)(F)C3)no2)(C(F)(F)F)CC1` [Example 2, (4-(3-(3,3-Difluorocyclobutyl)-1,2,4-oxadiazol-5-yl)-4-(trifluoromethyl)piperidin-1-yl)((7S,9R)-9-hydroxy-6-azaspiro[3.5]nonan-7-yl)methanone], the values for the IC50 in experiment [1] and in experiment [2] were 2.36 nM and 0.89 nM, respectively.
In the case of `O=C([C@@H]1C[C@@H](O)C2(CCC2)CN1)N1CCC(c2noc(C3CC(F)(F)C3)n2)(C(F)(F)F)CC1` [Example 3, (4-(5-(3,3-Difluorocyclobutyl)-1,2,4-oxadiazol-3-yl)-4-(trifluoromethyl)piperidin-1-yl)((7S,9R)-9-hydroxy-6-azaspiro[3.5]nonan-7-yl)methanone], the IC50 turned out to be 1.52 nM in experiment [1] and 0.49 nM in experiment [2].
In the same order, the values of `O=C([C@@H]1CC[C@@]2(CCO2)CN1)N1CCC(c2nc(C3CCC(F)(F)CC3)cs2)(C(F)(F)F)CC1` [Example 4] are 4.85 nM and 5.64 nM.
Taken in the same sequence, the figures for `CC(C)C1(c2noc(C3CC(F)(F)C3)n2)CCN(C(=O)[C@@H]2C[C@@H](O)C3(CCC3)CN2)CC1` [Example 5] were 1.08 nM and 1.01 nM.
As to `CC(C)C1(c2noc(C3CCC(F)(F)CC3)n2)CN(C(=O)[C@@H]2C[C@@H](O)C3(CCC3)CN2)C1` [Example 6], the IC50 in experiment [1] was 1.19 nM; in experiment [2], 1.06 nM.
As to `CN(CC1CCC(F)(F)CC1)C(=O)C1(C(F)(F)F)CCN(C(=O)[C@@H]2CC[C@@]3(CCO3)CN2)CC1` [Example 7], the values for the IC50 in experiment [1] and in experiment [2] were 10.4 nM and 23.6 nM, respectively.
Taken in the same sequence, the figures for `CN(CC1CCC(F)(F)CC1)C(=O)C1(C(F)(F)F)CCN(C(=O)[C@@H]2C[C@@H](O)C3(CCC3)CN2)CC1` [Example 8] were 1.6 nM and 1.62 nM.
Regarding `CC(C)C1(c2nc(C3CC(F)(F)C3)no2)CCN(C(=O)[C@@H]2CC[C@@]3(CCO3)CN2)CC1` [Example 9], the IC50 in experiment [1] amounted to 5.09 nM; in experiment [2], 11.4 nM.
As for `O=C([C@@H]1CC[C@@]2(CCO2)CN1)N1CCC(c2nc(C3CC(F)(F)C3)no2)(C(F)(F)F)CC1` [Example 10], the results for the IC50 in experiment [1] and in experiment [2] were 39.3 nM and 162 nM, respectively.
Regarding `O=C([C@@H]1CC[C@@]2(CCO2)CN1)N1CCC(c2nc(C3CCC(F)(F)CC3)no2)(C(F)(F)F)CC1` [Example 11], the results for the IC50 in experiment [1] and in experiment [2] were 7.73 nM and 11.5 nM, respectively.
As for `CC(C)C1(c2nc(C3CCC(F)(F)CC3)no2)CCN(C(=O)[C@@H]2C[C@@H](O)C3(CCC3)CN2)CC1` [Example 12], the IC50 in experiment [1] came out at 1.03 nM; in experiment [2], 0.34 nM.
For the compound `O=C([C@@H]1C[C@@H](O)C2(CCC2)CN1)N1CCC(c2nc(C3CCC(F)(F)CC3)no2)(C(F)(F)F)CC1` [Example 13], the 50% inhibitory concentration (IC50) in experiment [1] was 1.7 nM; in experiment [2], 0.19 nM.
As to `CC(C)C1(c2nnc(C3CCC(F)(F)CC3)o2)CCN(C(=O)[C@@H]2C[C@@H](O)C3(CCC3)CN2)CC1` [Example 14], the IC50 in experiment [1] was 1.35 nM; in experiment [2], 4 nM.
In the same order, the values of `CC(C)C1(C(=O)NC2CCC(F)(F)CC2)CN(C(=O)[C@@H]2C[C@@H](O)C3(CCC3)CN2)C1` [Example 15] are 1.9 nM and 791 nM.
For `CC(C)C1(c2nnc(C3CCC(F)(F)CC3)o2)CN(C(=O)[C@@H]2C[C@@H](O)C3(CCC3)CN2)C1` [Example 16, (3-(5-(4,4-difluorocyclohexyl)-1,3,4-oxadiazol-2-yl)-3-isopropylazetidine-1-yl)((7S,9R)-9-hydroxy-6-azaspiro[3.5]nonan-7-yl)methanone trifluoroacetate], the IC50 came out at 3.17 nM in experiment [1] and 19.2 nM in experiment [2].
In the same order, the values of `CC(C)C1(C(=O)N(C)CC2CCC(F)(F)CC2)CN(C(=O)[C@@H]2C[C@@H](O)C3(CCC3)CN2)C1` [Example 17] are 1.01 nM and 21.4 nM.
As to `CC(C)C1(c2nc(C3CC(F)(F)C3)no2)CN(C(=O)[C@@H]2C[C@@H](O)C3(CCC3)CN2)C1` [Example 18], the IC50 turned out to be 3.12 nM in experiment [1] and 2.33 nM in experiment [2].
Taken in the same sequence, the figures for `CC(C)C1(c2nc(C3CCC(F)(F)CC3)no2)CN(C(=O)[C@@H]2C[C@@H](O)C3(CCC3)CN2)C1` [Example 19] were 1.23 nM and 0.98 nM.
As for `CC(C)C1(C(=O)NCC2CCC(F)(F)CC2)CN(C(=O)[C@@H]2C[C@@H](O)C3(CCC3)CN2)C1` [Example 20], the IC50 in experiment [1] is 0.83 nM; in experiment [2] it was 227 nM.
Regarding `CC(C)C1(c2nc(C3CCC(F)(F)CC3)no2)CN(C(=O)[C@@H]2CC[C@@]3(CCO3)CN2)C1` [Example 21], the IC50 in experiment [1] amounted to 2.51 nM; in experiment [2], 4.78 nM.
Taken in the same sequence, the figures for `O=C([C@@H]1C[C@@H](O)C2(CCC2)CN1)N1CCC(C(=O)NCC2CCC(F)(F)CC2)(C(F)(F)F)CC1` [Example 22] were 1.03 nM and 20.8 nM.
Consider `CC(C)C1(c2noc(C3CCC(F)(F)CC3)n2)CCN(C(=O)[C@H]2NC3CCC2CC3)CC1` [Example 23], for which the figures for the IC50 in experiment [1] and in experiment [2] were 88.8 nM and 60.9 nM, respectively.
In the same order, the values of `CC(C)C1(c2noc(C3CCC(F)(F)CC3)n2)CCN(C(=O)[C@@H]2C[C@H](F)CN2)CC1` [Example 24] are 151 nM and above 1000 nM.
In the case of `CC(C)C1(c2noc(C3CCC(F)(F)CC3)n2)CCN(C(=O)[C@@H]2C[C@H](O)CN2)CC1` [Example 25], the IC50 in experiment [1] and in experiment [2] was above 200 nM each time.
For the compound `CC(C)C1(c2noc(C3CCC(F)(F)CC3)n2)CCN(C(=O)[C@H]2N[C@@H]3CC[C@H]2C3)CC1` [Example 26], the IC50 in experiment [1] was above 200 nM; in experiment [2], 474 nM.
In the same order, the values of `CC(C)C1(C(=O)NCC2CCC(F)(F)CC2)CN(C(=O)[C@@H]2CC[C@@]3(CCO3)CN2)C1` [Example 27] are 0.24 nM and 133 nM.
Taken in the same sequence, the figures for `CS[C@@H]1CN[C@H](C(=O)N2CCC(c3noc(C4CCC(F)(F)CC4)n3)(C(C)C)CC2)C1` [Example 28] were 254 nM and 596 nM.
